Assay results: patent US20250000999A1, “POLYMERSOMES FOR CLEARANCE OF AMYLOID BETA AND/OR TAU PROTEINS” (UCL Business Ltd, priority 2021, published 2025)

Test system: LRP-1
Assay: Single binding energy of a ligand/LRP-1 receptor pair
From the text: wherein: • λ is the density of the ligand type on the external surface of the microparticle or nanoparticle (number per nm^2 • A is the microparticle or nanoparticle surface area (in nm^2); • ξ is the number of the LRP-1 receptors accessible to the nanoparticles, and thus ξ=ΓA where, Γ is the LRP-1 surface density (number per nm^2) and A is as defined above; • β=(kBT)^−1 wherein kB is the Boltzmann constant (in JK^−1) and T is the absolute temperature in Kelvin; • εB is the single energy of binding of a ligand type/LRP-1 receptor pair (in J); and • uS is the steric potential between the nanoparticle or microparticle and the cell surface (in J).
The single ligand binding potential εB between a given ligand and the LRP-1 receptor can be measured experimentally by binding assays including Surface plasmon resonance spectroscopy, Isothermal titration calorimetry, radiolabeling or fluorescent labelling. It can also be estimated computationally using molecular docking and or molecular dynamics methods.

LRP-1, sequence (Q07954 20-4544, species assumed): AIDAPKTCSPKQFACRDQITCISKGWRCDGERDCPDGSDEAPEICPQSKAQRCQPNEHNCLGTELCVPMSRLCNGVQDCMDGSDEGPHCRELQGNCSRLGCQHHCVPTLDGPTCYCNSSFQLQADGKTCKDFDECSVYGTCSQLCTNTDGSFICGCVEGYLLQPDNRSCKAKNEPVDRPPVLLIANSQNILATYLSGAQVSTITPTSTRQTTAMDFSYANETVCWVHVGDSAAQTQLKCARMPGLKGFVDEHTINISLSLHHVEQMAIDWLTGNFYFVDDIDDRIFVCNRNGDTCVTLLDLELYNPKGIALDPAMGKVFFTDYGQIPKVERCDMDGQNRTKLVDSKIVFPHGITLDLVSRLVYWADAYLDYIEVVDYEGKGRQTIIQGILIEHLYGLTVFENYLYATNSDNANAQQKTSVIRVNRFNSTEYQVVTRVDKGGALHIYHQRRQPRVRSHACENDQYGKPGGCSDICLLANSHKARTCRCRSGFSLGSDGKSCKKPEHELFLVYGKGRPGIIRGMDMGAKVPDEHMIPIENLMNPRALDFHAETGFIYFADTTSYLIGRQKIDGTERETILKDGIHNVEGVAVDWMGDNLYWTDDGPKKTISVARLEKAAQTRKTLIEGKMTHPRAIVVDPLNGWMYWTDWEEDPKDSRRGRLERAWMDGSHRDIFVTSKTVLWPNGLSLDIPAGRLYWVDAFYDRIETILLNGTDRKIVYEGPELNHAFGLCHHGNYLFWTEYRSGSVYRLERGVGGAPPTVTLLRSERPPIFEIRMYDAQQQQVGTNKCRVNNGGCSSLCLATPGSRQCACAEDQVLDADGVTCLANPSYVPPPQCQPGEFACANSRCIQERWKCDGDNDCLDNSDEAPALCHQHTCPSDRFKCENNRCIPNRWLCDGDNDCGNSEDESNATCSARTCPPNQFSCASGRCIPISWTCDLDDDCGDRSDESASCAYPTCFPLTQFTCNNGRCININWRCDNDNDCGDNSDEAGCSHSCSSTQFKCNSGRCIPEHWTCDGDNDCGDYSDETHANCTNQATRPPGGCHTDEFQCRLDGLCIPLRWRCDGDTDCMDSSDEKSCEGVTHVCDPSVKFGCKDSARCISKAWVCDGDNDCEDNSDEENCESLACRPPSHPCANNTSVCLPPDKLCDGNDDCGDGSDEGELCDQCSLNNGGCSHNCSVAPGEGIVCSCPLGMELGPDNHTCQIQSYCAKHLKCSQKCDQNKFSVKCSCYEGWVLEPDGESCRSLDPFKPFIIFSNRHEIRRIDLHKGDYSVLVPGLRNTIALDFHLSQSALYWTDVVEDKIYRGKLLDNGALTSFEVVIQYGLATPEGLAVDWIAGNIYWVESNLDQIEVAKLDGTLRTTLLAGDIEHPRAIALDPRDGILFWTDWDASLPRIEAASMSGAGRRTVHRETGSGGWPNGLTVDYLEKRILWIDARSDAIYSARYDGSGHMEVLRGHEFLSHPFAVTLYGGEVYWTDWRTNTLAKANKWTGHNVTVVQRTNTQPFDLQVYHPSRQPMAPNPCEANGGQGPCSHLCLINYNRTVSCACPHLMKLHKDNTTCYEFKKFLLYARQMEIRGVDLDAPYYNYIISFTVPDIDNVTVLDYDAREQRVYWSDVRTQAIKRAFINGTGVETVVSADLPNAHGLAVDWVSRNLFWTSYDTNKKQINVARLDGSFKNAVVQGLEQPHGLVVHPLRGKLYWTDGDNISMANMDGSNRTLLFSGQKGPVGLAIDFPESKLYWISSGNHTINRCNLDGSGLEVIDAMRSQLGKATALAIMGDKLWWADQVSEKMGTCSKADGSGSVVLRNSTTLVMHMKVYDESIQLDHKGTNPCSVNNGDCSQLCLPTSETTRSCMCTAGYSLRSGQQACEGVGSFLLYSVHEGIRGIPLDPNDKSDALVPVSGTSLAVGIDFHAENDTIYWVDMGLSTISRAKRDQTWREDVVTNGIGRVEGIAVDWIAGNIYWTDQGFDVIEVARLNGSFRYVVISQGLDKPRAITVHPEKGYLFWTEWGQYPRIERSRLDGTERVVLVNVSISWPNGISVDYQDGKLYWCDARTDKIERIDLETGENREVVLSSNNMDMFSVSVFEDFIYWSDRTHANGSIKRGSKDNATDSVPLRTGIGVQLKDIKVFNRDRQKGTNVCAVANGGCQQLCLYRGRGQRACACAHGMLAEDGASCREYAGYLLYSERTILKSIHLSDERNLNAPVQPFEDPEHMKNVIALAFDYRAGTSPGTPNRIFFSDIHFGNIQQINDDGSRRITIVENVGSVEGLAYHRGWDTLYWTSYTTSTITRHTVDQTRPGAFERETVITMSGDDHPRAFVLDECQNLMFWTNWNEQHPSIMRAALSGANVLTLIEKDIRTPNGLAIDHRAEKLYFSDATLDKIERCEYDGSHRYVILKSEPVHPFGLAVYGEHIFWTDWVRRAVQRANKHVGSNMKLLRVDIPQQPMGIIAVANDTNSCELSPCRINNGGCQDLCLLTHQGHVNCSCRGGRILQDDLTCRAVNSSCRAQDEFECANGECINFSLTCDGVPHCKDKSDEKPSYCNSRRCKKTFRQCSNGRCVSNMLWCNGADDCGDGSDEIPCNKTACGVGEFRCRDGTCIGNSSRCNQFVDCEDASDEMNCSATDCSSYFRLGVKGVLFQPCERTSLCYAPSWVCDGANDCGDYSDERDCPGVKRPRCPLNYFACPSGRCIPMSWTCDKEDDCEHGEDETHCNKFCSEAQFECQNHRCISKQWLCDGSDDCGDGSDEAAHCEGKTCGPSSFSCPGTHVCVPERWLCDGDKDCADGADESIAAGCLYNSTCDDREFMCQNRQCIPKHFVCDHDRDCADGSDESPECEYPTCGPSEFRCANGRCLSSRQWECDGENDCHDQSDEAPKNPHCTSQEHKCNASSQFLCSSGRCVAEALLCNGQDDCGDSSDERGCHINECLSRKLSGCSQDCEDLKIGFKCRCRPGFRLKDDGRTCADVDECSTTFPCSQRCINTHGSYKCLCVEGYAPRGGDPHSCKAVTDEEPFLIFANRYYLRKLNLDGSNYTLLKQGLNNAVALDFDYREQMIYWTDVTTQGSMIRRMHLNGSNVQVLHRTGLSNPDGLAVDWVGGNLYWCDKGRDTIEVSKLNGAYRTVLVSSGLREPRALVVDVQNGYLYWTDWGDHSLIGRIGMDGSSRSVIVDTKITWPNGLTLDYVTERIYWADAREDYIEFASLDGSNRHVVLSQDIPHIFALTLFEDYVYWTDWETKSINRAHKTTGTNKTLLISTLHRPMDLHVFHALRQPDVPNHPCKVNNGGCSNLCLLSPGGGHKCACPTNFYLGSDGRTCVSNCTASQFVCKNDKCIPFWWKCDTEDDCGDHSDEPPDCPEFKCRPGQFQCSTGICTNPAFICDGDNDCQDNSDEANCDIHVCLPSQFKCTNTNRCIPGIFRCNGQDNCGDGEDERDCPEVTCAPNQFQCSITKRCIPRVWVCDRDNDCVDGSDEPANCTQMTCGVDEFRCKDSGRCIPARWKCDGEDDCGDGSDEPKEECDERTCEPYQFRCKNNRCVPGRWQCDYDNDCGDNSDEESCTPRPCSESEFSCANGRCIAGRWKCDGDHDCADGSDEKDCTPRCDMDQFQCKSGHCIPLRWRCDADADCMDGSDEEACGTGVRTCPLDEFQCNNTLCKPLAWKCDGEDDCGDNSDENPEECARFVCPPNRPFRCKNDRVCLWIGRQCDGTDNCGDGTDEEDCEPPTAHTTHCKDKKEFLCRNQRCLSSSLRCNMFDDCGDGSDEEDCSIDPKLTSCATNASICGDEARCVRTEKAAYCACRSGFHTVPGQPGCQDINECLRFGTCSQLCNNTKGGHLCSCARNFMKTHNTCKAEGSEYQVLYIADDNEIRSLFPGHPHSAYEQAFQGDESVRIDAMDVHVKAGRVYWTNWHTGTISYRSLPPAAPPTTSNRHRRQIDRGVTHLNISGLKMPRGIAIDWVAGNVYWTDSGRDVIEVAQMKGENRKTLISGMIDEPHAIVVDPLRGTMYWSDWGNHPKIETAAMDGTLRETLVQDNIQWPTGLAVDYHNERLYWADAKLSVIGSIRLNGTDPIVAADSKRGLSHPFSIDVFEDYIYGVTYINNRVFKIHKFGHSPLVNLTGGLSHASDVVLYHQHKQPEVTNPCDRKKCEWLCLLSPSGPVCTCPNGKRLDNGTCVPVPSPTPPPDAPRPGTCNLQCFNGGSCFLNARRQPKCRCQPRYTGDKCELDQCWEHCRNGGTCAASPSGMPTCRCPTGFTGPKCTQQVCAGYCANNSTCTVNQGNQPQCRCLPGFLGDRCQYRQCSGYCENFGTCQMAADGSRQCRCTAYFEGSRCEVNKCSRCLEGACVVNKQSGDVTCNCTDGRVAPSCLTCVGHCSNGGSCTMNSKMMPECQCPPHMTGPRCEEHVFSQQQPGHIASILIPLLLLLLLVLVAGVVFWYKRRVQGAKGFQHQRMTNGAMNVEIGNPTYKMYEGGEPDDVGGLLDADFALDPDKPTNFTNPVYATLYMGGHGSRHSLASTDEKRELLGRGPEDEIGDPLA

Sequence: TFFYGGSRGKRNNFKTEEY [Angiopep-2]
- εB, single energy of binding of ligand/LRP-1 receptor pair: −15 kBT
